Data as given in patent publication US20080063643A1, “Peptide Derived From Hepatitis C Virus” (priority 2003, published 2008).

Key:
peptide-reactive IgG [1] = test: ELISA of anti-C-35 and anti-NS5A-2132 antibody in cohort study sera of 1995 and 2002; format: binding, human; settings: serum dilution 100:1
Method: Sera were obtained from 33 patients with a disease associated with HCV in the cohort study conducted between 1995 and 2002. The sera obtained from patients with chronic hepatitis (CH, n=68), liver cirrhosis (LC, n=43) and hepatic cell carcinoma (HCC, n=52) were also used in the analysis. These patients were diagnosed at the time of the first serum sampling by biochemical and histological findings, echography and computed tomography. An anti-HCV antibody was assayed using a chemiluminescence enzyme immunoassay (CLEIA) kit (Lumipulse II HCV, Fujirebio Inc., Tokyo, Japan) or the second generation or the third generation enzyme immunoassay test (SRL, Tokyo, Japan). HCV-RNA in the sera was detected using RT-PCR (SRL, Tokyo, Japan). The HCV genotype was determined by directly sequencing HCV in the sera of the patients by RT-PCR (SRL, Tokyo, Japan). The sera were also obtained from subjects who were not infected with HCV, which include 24 subjects with an autoimmune disease (6 patients with systematic lupus erythematosus, one with Behcet's disease and 17 with atopic dermatitis), 17 cases of hepatitis B virus (HBV) infection (positive for HBV surface antigen), 3 patients having human immunodeficiency virus (HIV) and 10 cases with human T cell leukemia virus type I (HTLV-1) infection.
The level of peptide-specific IgG was measured by an enzyme-linked immunosorbent assay (ELISA). […]

peptide-reactive IgG [2] = test: ELISA of anti-C-35 and anti-NS5A-2132 IgG in sera: cross reactivity, HLA and genotype restriction (Example 3); format: binding, human
Source text: Two peptides with a purity of 90% or more were purchased from BIOSYNTHESIS (Lewisville, Tex.): HCV-1b core protein 35-44 ([…] (SEQ ID NO: 1) capable of inducing an HLA-A2-restricted CTL activity) and HCV-1b NS5A protein 2132-2140 ([…] (SEQ ID NO: 2) capable of inducing an HLA-A24-restricted CTL activity). As a negative control, peptides derived from HIV with an HLA-A2-binding motif ([…] (SEQ ID NO: 64)) and an HLA-A24-binding motif ([…] (SEQ ID NO: 63)) were used.
The level of peptide-specific IgG was measured by an enzyme-linked immunosorbent assay (ELISA). Briefly, each peptide was dissolved in dimethyl sulfoxide (DMSO) and stored at −20° C. The peptide (20 μg/well) diluted with 0.1 M carbonate buffer containing disuccinimidyl suberate (DSS) (PIERCE, Rockford, Ill.) as a chemical crosslinker was bound to an ELISA plate. The wells were washed 3 times with 0.05% Tween 20/PBS (PBST). Then, the plate was blocked overnight at 4° C. with Block Ace (Yukijirushi, Tokyo, Japan). A serum sample was diluted 1:100, 1:200 or 1:400 with 0.05% Tween 20/Block Ace, and 100 μl/well of the sample was added to each well. After the sample was incubated at 37° C. for 2 hours, the plate was washed 9 times with PBST, and further incubated at 37° C. for 2 hours with 100 μl/well of a 1:1000 diluted rabbit anti-human IgG (γ-chain specific) (DAKO Glostrup, Denmark). After the plate was washed 9 times, 100 μl/well of a 1:100 diluted anti-rabbit IgG-conjugated horseradish peroxidase-dextran polymer (En Vision, DAKO) was added to each well, and then the plate was incubated at room temperature for 40 minutes. After the plate was washed, 100 μl/well of a tetramethylbenzidine substrate solution (KPL, Guildford, UK) was added, and the reaction was stopped by the addition of 1.0 M phosphoric acid.
The cross reactivity of two antibodies reactive to the peptides derived from HCV-1b was examined. The sera obtained from 60 HCV patients and patients who are not included in the cohort study (CH, n=22, LC, n=21 and HCC, n=17) were examined for reactivity to the peptides of the core 35-44 (C-35) and NS5A 2132-2140 (NS5A-2132). The sera were also obtained from 24 subjects with an autoimmune disease, 17 cases of HBV infection and 10 cases of HTLV-1 infection. The sera obtained from 37 HDs were used as a negative control. The level of peptide-reactive IgG contained in the serially diluted serum samples was measured by ELISA. The results are reported by the absorbance (OD) of each sample. The representative results of OD at a serum dilution of 100:1 are shown. The cut-off value was set at 0.093 (mean+2 SD of OD from HDs). The statistical analysis was carried out using the χ^2-test. Values of P<0.05 were considered statistically significant.
Then, the correlation between the HLA-class IA phenotype and the level of anti-C-35 IgG or anti-NS5A-2132 IgG was examined in 29 patients with a disease associated with HCV. The HLA-class IA phenotype was determined by a standard serological method. Nine patients were HLA-A2^+, 13 patients were A24^+, and the remaining 7 patients were A2^−-A24^−. The levels of Anti-C-35 and anti-NS5A-2132 were measured by a standard ELISA and the OD value of each patient at a serum dilution of 100:1 is shown in the figure.
Also the correlation between the HCV genotype and the level of anti-C-35 IgG or anti-NS5A-2132 IgG was examined in a double blind study in patients infected with HCV-1b (n=29), HCV-2a (n=16) and HCV-2b (n=3). The HCV genotype was determined by directly sequencing HCV in the serum of the patient. The levels of anti-C-35 and anti-NS5A-2132 were measured by a standard ELISA and the OD value of each patient at a serum dilution of 100:1 is shown. The cut-off value was set at 0.093 (mean+2 SD of OD from HDs).
Then, the sera of CH (n=24), LC (n=22), HCC (n=26) and HDs (n=9) were newly prepared and the level of anti-NS5A-2132 IgG was measured (FIG. 26). […]

[3] = out of 60, cut-off 0.093 OD, serum dilution 100:1

YLLPRRGPRL [No. 40]
level of the anti-peptide antibody in 1995 compared with 2002 (peptide-reactive IgG [1]; 33 cohort patients): almost equal | level of the anti-peptide antibody by group in 2002 (peptide-reactive IgG [1]; CH, LC, HCC, recovered individuals, ASC): high in any of CH, LC, and HCC patients, and it became very low or undetectable in the recovered individuals | IgG level among the 3 groups (CH, LC and HCC patients) (peptide-reactive IgG [2]): no significant difference in the IgG level among the 3 groups | detection of the anti-peptide antibody by HLA-class IA phenotype (peptide-reactive IgG [2]; 29 patients: HLA-A2+, A24+, A2-A24-): detected in the majority of the patients | positivity of sera from the other (not HCV) groups (peptide-reactive IgG [2]; autoimmune disease, HBV, HTLV-1): not positive | number of HTLV-1+ subjects with a significant level of anti-peptide IgG (peptide-reactive IgG [2]; out of 10 cases): 8 | number of HCV-positive patients with a significant level of anti-peptide IgG (peptide-reactive IgG [2]; [3]): 56 | percentage of HCV-positive patients with a significant level of anti-peptide IgG (peptide-reactive IgG [2]; [3]): 93.3% | number of patients with the anti-peptide antibody detected (peptide-reactive IgG [2]; patients infected with HCV-1b, out of 30): 26 | number of patients with the anti-peptide antibody detected (peptide-reactive IgG [2]; patients infected with HCV-2a, out of 15 (C-35) or 16 (NS5A-2132)): 15 | number of patients with the anti-peptide antibody detected (peptide-reactive IgG [2]; patients infected with HCV-2b, out of 3): 3
